For experiment [1], the target named is T1, Recombinant human integrin αVβ3 (Homo sapiens, UniProt P05106+P06756).
T1 construct: purchased R&D Systems, Minneapolis, MN, USA
Nature of the experiment: Inhibition of biotinylated vitronectin binding to purified αVβ3 receptor (solid phase receptor binding assay). The settings on record: conjugates, Table 2; mean ± SD of triplicate determinations. The protocol: Conjugates 7–11 were evaluated for their ability to inhibit biotinylated vitronectin binding to the purified αVβ3 receptor. Screening assays were performed by incubating the immobilized integrin receptor with solutions of the cyclo[DKP-RGD]-α-amanitin and cyclo[DKP-isoDGR]-α-amanitin conjugates 7–11 at different concentrations (10^−12 to 10^−5 M) in the presence of biotinylated vitronectin (1 µg mL^−1) and measuring bound vitronectin. […]
to assist the dissolution). The solution obtained was filtered (polypropylene, 0.45 μm, 13 mm ø, PK/100) and injected in the HPLC, affording purified products. Purity analyses were carried on a Dionex Ultimate 3000 instrument equipped with a Dionex RS Variable Wavelenght detector (column: Atlantis® Prep T3 OBDTM 5 μm 19 × 100 mm). The analyte (1 mg) was dissolved in 1 mL of H2O and was injected using the same gradient used in the purification step. The analysis of the integrals and the relative percentage of purity were performed with the software Chromeleon 6.80 SR11 Build 3161. Also, preparative HPLC LaPrep∑ equipped with autosampler AS3950 and a Phenomenex Luna C-18(2) column, 10 µm, 250 × 21.2 mm, with precolumn at 30 mL/min flow rate and analytical HPLC performed on Hitachi Chromaster (column oven Chromaster 5310, pump Chromaster 5110, autosampler Chromaster 5210, DAD Chromaster 5430) equipped with a Phenomenex Luna C-18(2) column, 10 µm, 250 × 4.6 mm, with precolumn at 1.4 mL/min flow rate were used. Freeze-drying: The product was dissolved in water and frozen with dry ice. The freeze-drying was carried out at least for 48 h at −50 °C using the instrument 5Pascal Lio5P DGT.
Solid phase receptor binding assays
Recombinant human integrin αVβ3 (R&D Systems, Minneapolis, MN, USA) was diluted to 0.5 µg/mL in coating buffer containing 20 mM Tris-HCl (pH 7.4), 150 mM NaCl, 1 mM MnCl2, 2 mM CaCl2, and 1 mM MgCl2. […] Absorbance at 415 nm was read in a SynergyTM HT Multi-Detection Microplate Reader (BioTek Instruments, Inc.). […]

Experiment [2] has as its system MDA-MB-468 cells (breast adenocarcinoma, αVβ3−). Description: cells. The settings on record: 96 hours treatment; triplicate; read-out: IC50 MDA-MB-468 (αVβ3−), inhibition of cell viability. Type of experiment: cell-based. The protocol: The cell lines were treated with different concentrations of the free drug α-amanitin and conjugates 7–11 for 96 hours. […]
described recently.[S1] The SNP profiles matched known profiles or were unique. The purity of the cell lines was validated using the Multiplex cell Contamination Test by Multiplexion (Heidelberg, Germany) as described recently.[S2] No mycoplasma, SMRV or interspecies contamination was detected. U87-MG, MDA-MB 468 and A549 cells were cultivated continuously for not more than 3 months in MEM Eagle´s, DMEM or Ham´s F12 medium, respectively, supplemented with 10% heat inactivated fetus calf serum, L-glutamine and antibiotics. Cell lines were maintained at 37 °C and 5% CO2 in a high humidity atmosphere.
Cell therapy and viability assay
Cell viability assays were performed in U87-MG, A549 and MDA-MB 468 cell lines according to the following procedure: 2 × 10^3 cells/well were plated in 96-well black clear bottom plates (Perkin Elmer) and incubated overnight. 1:5 serial dilutions of compounds 7–11 were prepared in cell culture media. The compounds were added to the cell culture and incubated for additional 96 h. Starting concentration of compounds 7–11 in the wells was 1 × 10−5 M and cell viability was determined with the CellTiterGlo 2.0 assay (Promega) in accordance to manufacturer’s instructions. The cell viability was calculated in relation to the non-treated controls for each cell line. All samples were measured in triplicate. Data analysis was carried out using software GraphPad Prism (GraphPad Software Inc., La Jolla, CA, USA). […]
[S1] F. Castro, W. G. Dirks, S. Fähnrich, A. Hotz-Wagenblatt, M. Pawlita, M. Schmitt, Int. J. Cancer […]
[S2] M. Schmitt, M. Pawlita, Nucleic Acids Res. 2009, 37, e119.

The record followed here is PMC5827777, “Synthesis and biological evaluation of RGD and isoDGR peptidomimetic-α-amanitin conjugates for tumor-targeting” (Beilstein Journal of Organic Chemistry, 2018).

T1 sequence (P06756 31-992 limits assumed): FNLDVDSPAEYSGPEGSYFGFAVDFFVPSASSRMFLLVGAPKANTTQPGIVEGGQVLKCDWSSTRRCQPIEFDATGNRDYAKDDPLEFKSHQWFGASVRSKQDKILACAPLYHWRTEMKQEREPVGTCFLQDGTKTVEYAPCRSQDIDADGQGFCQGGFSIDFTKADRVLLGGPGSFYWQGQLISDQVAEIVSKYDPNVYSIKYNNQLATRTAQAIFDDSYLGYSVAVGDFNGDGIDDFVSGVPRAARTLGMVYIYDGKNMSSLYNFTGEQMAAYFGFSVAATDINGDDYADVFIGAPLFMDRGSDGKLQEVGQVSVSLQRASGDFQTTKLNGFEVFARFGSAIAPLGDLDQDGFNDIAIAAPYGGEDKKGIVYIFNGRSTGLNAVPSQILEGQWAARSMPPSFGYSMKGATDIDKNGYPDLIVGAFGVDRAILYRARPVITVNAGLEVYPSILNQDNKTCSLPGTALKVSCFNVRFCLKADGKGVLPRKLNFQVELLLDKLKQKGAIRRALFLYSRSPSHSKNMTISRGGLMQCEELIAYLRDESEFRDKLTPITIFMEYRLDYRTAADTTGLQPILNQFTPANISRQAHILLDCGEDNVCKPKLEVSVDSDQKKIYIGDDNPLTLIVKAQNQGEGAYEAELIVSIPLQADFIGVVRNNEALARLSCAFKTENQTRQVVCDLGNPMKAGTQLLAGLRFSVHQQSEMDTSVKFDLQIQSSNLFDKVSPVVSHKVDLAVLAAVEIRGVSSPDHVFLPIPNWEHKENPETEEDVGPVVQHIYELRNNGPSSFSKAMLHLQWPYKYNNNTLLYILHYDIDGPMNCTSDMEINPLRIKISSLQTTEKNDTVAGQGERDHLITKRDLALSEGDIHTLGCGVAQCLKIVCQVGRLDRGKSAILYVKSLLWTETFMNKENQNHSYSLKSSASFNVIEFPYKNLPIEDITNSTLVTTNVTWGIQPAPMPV
T1 sequence (P05106 27-718 limits assumed): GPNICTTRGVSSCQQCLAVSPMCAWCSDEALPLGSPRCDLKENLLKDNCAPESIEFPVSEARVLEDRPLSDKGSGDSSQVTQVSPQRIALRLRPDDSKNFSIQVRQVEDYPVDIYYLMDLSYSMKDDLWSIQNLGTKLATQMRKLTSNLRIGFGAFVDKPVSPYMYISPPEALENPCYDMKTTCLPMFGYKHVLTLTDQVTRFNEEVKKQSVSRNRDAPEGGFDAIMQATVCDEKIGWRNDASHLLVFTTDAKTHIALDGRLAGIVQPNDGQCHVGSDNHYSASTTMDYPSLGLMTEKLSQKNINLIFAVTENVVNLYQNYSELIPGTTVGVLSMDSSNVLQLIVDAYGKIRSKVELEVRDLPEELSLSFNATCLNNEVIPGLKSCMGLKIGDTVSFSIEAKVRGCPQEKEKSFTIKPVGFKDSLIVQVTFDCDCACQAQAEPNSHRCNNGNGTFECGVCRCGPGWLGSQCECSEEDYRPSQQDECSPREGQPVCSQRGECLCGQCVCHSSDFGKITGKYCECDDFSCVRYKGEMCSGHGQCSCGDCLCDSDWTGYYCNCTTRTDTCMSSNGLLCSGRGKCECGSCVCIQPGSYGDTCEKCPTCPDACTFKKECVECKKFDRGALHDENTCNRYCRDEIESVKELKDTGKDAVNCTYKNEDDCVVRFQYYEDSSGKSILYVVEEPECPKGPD

The term IC50 denotes the concentration that gives 50% inhibition. For the molecule `CC[C@H](C)[C@@H]1NC(=O)CNC(=O)[C@@H]2Cc3c([nH]c4cc(OCc5ccc(NC(=O)[C@H](C)NC(=O)[C@@H](NC(=O)CCCC(=O)NCc6ccc(CN7C(=O)[C@H]8CC(=O)N[C@H](C(=O)O)CC(=O)NCC(=O)N[C@@H](CCCNC(=N)N)C(=O)NC[C@H]7C(=O)N8)cc6)C(C)C)cc5)ccc34)[S@+]([O-])C[C@H](NC(=O)CNC1=O)C(=O)N[C@@H](CC(N)=O)C(=O)N1C[C@H](O)C[C@H]1C(=O)N[C@@H]([C@@H](C)[C@@H](O)CO)C(=O)N2` [Compound 10, cyclo[DKP-isoDGR]-Val-Ala-α-amanitin], the concentration for half-maximal inhibition (IC50) in experiment [1] amounted to 6.4 ± 1.9 nM; in experiment [2], 59 ± 23.4 nM.
